Reference: patent publication US11439657B2, “Cancer stem cell growth inhibitor using miRNA” (CancerStem Tech Inc., priority 2017, dated 2022)

Key:
[1] = tested on: solid tumor from the cancer stem cell population (ZsGreen+); assay: Mouse subcutaneous solid tumor model test; type: in vivo, BALB/cA nude mice
Method: In 100 ml of distilled water, 0.37 g of NaHCO3, 90 μl of NaH2PO4.2H2O (1M) and 180 μl of CaCl2 (1 M) were added in this order and dissolved, and the pH was adjusted to 7.5 with 1N HCl. This was filtered through 0.2 μm diameter filter. Per 1 ml of the resultant buffer, 2 μg of miRNA and 4 μl of CaCl2 (1 M) were mixed and incubated in a water bath at 37° C. for 30 minutes. Then, spin down was performed at 15000 rpm×5 minutes. The resultant pellet was dispersed in physiological saline (containing 0.5 wt % albumin). Accordingly, a dispersion of composite particles containing the miRNA in carbonate apatite particles was obtained. The resultant dispersion was subjected to ultrasonic vibration treatment for 10 minutes just prior to testing. Note that the ultrasonic vibration treatment was performed for 10 minutes using a water bath with an ultrasonic vibration function, in which the dispersion contained in a plastic container was floated on water set to 20° C., under conditions of high frequency output of 55 W and oscillation frequency of 38 kHz. The preparation obtained in this way was immediately used for the tests described below.
Note that it is confirmed in the measurement using a scanning probe microscope that the dispersion of ultrasonic vibration treatment includes composite particles composed of carbonate apatite nanoparticles containing the miRNA having an average particle diameter of 50 nm or less. It is also confirmed that the resultant composite particles contain about 20 μg of the miRNA per 1 mg of carbonate apatite.
The cancer stem cell population (ZsGreen+) obtained in Test Example 1 was subcutaneously injected at 5×10^5 cells to the left and right backs of 6 to 8 weeks age BALB/cA nude mice (manufactured by CLEA Japan, Inc.) to produce solid tumor model mice. When the tumor reached about 20 mm^3 in size, the mice were randomly divided into an hsa-miR-136-5p administration group (hsa-miR-136-5p), an untreated group, and a negative control group (control miRNA). In the hsa-miR-136-5p administration group, the day at which the tumor reached about 20 mm^3 in size was 0th day. On the 0th, 3rd, 5th, 7th, 10th, 12th, 14th, 17th and 19th days, carbonate apatite nanoparticles containing the hsa-miR-136-5p were intravenously injected into the tail vein at 40 μg/dose in terms of the amount of hsa-miR-136-5p. In the negative control group, carbonate apatite nanoparticles containing a control miRNA (SEQ ID NO: 9) were intravenously injected into the tail vein at the same schedule and dose as those for the miRNA136-5p administration group. In the untreated group, no drug was administered. During the test period, the tumor volume on the back of the mouse (longer diameter×shorter diameter×shorter diameter×1/2) was measured over time, and on the 24th day, the tumor was excised from the mice and observed for size, and its weight was measured.
A mouse subcutaneous solid tumor model test was conducted in the same manner as in Test Example 2 except that hsa-miR-3065-3p was used in place of hsa-miR-136-5p.
A mouse subcutaneous solid tumor model test was conducted in the same manner as in Test Example 2 except that hsa-miR-181-5p was used in place of hsa-miR-136-5p.

[2] = tested on: human large bowel cancer cells (DLD1 line and HT29 line); assay: Colony formation assay; type: cell-based; details: DLD1 and HT29 lines; 50 nM; culture for 10 days; versus control miRNA; FIG. 14
Method: A cell suspension prepared by suspending human large bowel cancer cells (DLD1 line and HT29 line) in RPMI medium (containing 10% by volume FBS) was seeded in each well of a 6-well plate at 3×10^5 cells/well, followed by culture for 2 days. Then, the medium was changed to RPMI medium (containing no FBS), and a mixture of lipofectamin RNAiMAX Regent (final concentration in each well: 0.03 μL/ml) and hsa-miR-3065-3p (final concentration in each well: 50 nM) was added for transfection, followed by culture for 8 hours. Then, cells after transfection were recovered and suspended in RPMI medium (containing 10% by volume FBS), and were seeded in each well of a 6-well plate at 500 cells/well, followed by culture for 10 days. Thereafter, the culture supernatant was removed, and cells were fixed with methanol and then stained with crystal violet to count the formed colonies. In addition, tests were also performed under the same condition on a case where a control miRNA (SEQ ID NO: 9) was used (control miRNA, negative control) in place of hsa-miR-3065-3p.

[3] = tested on: human large bowel cancer cells (DLD1 line); assay: Wound healing assay; type: cell-based; details: 20 pmol/well, wound area at 24 and 48 hours, compared to the negative control, FIG. 17
Method: Wound healing assay was performed using Culture-Insert (NIPPON Genetics Co, Ltd). In each well of a 24-well plate, 70 μl of cell suspension (4.9×10^4 cells/well) prepared by suspending human large bowel cancer cells (DLD1 line) in RPMI medium (containing 10% by volume FBS) and an insert that could create a constant gap of 0.5±0.05 mm in width between cells were placed, followed by culture for 1 day, so that a single layer of cells and an area where there is no cell (wound area) corresponding to the gap were formed at the bottom of the well. Then, the insert and culture supernatant were remove, 500 μl of DMEM medium (serum free) was added to each well, and further a mixture of lipofectamin RNAiMAX Regent (final concentration in well: 2 μl/well) and hsa-miR-3065-3p (final concentration in well: 20 pmol/well) was added, followed by culture for 1 day. Thereafter, the medium was changed to RPMI medium (containing 10% by volume FBS), followed by culture for 48 hours. The culture using RPMI medium (containing 10% by volume FBS) had the medium replaced with a fresh medium at 24 hours after the start of culture. The area of wound area was determined at 0, 24 and 48 hours from the start of culture using RPMI medium (containing 10% by volume FBS). When the wound area at 0 hour from the start of culture was 100%, the percentages of wound area at 24 and 48 hours after culture were determined. […]

Substance	tumor excised on the 24th day (size and weight) as compared to the untreated group and the negative control group ([1]; 24th day, carbonate apatite nanoparticles, 40 μg/dose i.v., FIGS. 5b and 5c)	tumor volume as compared to the untreated group and the negative control group ([1]; after the 7th day, carbonate apatite nanoparticles, 40 μg/dose i.v., FIG. 5a)	antitumor effect as compared to the untreated group and the negative control group (control miRNA) ([1]; carbonate apatite nanoparticles containing the miRNA, 40 μg/dose, tail vein i.v., days 0-19, tumor excised on the 24th day)	tumor volume as compared to the untreated group and the negative control group ([1]; from the 17th day, carbonate apatite nanoparticles, 40 μg/dose i.v., FIG. 6)	colony forming ability of human large bowel cancer cells [2]	decrease in wound area (migration) [3]
hsa-miR-136-5p: human-derived miR-136-5p; base sequence set forth in SEQ ID NO: 1 as mature miRNA (ACUCCAUUUGUUUUGAUGAUGGA; listed as RNA, chemistry not given here; listed as Homo sapiens)	significantly smaller	significantly smaller tumor volume	remarkably higher antitumor effect			
hsa-miR-3065-3p: human-derived miR-3065-3p; base sequence set forth in SEQ ID NO: 2 as mature miRNA (UCAGCACCAGGAUAUUGUUGGAG; listed as RNA, chemistry not given here; listed as Homo sapiens)				significantly reduced	able to inhibit the colony forming ability	significantly suppressed
